Measurements from US20060148858A1, “1, 2-Azole derivatives with hypoglycemic and hypolipidemic activity” (priority 2002, published 2006).

Tested on: KKAY mice
Test: Plasma anti-arteriosclerosis index-enhancing action in mice (Test Example 2)
Assay type: in vivo
Details: Mus musculus, po, 96 h, 0.005% in powdery diet, four days, percent increase of (HDL cholesterol/total cholesterol)x100, non-treatment group taken as 100%

Q: Which change in vivo at 0.005 % in diet does the source give for `CCC(CC)c1nn(-c2ccc(C(F)(F)F)nn2)cc1CCCOc1c(C)cccc1CC(=O)O` [Example 340, [2-(3-{3-(1-ethylpropyl)-1-[6-(trifluoromethyl)pyridazin-3-yl]-1H-pyrazol-4-yl}propoxy)-3-methylphenyl]acetic acid] here?
A: 21%

Q: With `CCOc1nn(-c2ccc(C(F)(F)F)cn2)cc1CCCOc1ccccc1CC(=O)O` [Example 31, (2-(3-{3-ethoxy-1-[5-(trifluoromethyl)-2-pyridyl]-1H-pyrazol-4-yl}propoxy)phenyl]acetic acid] as the compound, how does the change in vivo at 0.005 % in diet read?
A: 16%

Q: How did the change in vivo at 0.005 % in diet turn out when `COc1ccc(CC(=O)O)cc1OCCCc1cn(-c2ccc(C(F)(F)F)cn2)nc1C1CCCCC1` [Example 304, [3-(3-{3-cyclohexyl-1-[5-(trifluoromethyl)-2-pyridinyl]-1H-pyrazol-4-yl}propoxy)-4-methoxyphenyl]acetic acid] was run?
A: 13%

Q: Which change in vivo at 0.005 % in diet does the source give for `O=C(O)CCc1cc(OCCCc2cn(-c3ccc(C(F)(F)F)cn3)nc2C2CCCCC2)nn1-c1ccccc1` [Example 189, 3-[3-(3-{3-cyclohexyl-1-[5-(trifluoromethyl)-2-pyridyl]-1H-pyrazol-4-yl}propoxy)-1-phenyl-1H-pyrazol-5-yl]propionic acid] here?
A: 20%

Q: How did the change in vivo at 0.005 % in diet turn out when `CCOc1nn(-c2ccc(C(F)(F)F)cn2)cc1CCCOc1cccc(CC(=O)O)c1` [Example 30, [3-(3-{3-ethoxy-1-[5-(trifluoromethyl)-2-pyridyl]-1H-pyrazol-4-yl}propoxy)phenyl]acetic acid] was run?
A: 19%

Q: For `Cc1cccc(CC(=O)O)c1OCCCc1cn(-c2ccc(C(F)(F)F)cn2)nc1C1CCCCC1` [Example 316, [2-(3-{3-cyclohexyl-1-[5-(trifluoromethyl)-2-pyridinyl]-1H-pyrazol-4-yl}propoxy)-3-methylphenyl]acetic acid], which change in vivo at 0.005 % in diet is on record?
A: 10%

Q: With `COc1cccc(CC(=O)O)c1OCCCc1cn(-c2ccc(C(F)(F)F)nn2)nc1C(C)C` [Example 274, [2-(3-{3-isopropyl-1-[6-(trifluoromethyl)pyridazin-3-yl]-1H-pyrazol-4-yl}propoxy)-3-methoxyphenyl]acetic acid] as the compound, how does the change in vivo at 0.005 % in diet read?
A: 11%

Q: `CCC(CC)c1nn(-c2ccc(Cl)cn2)cc1CCCOc1c(CC(=O)O)cccc1OC` [Example 223, (2-{3-[1-(5-chloro-2-pyridyl)-3-(1-ethylpropyl)-1H-pyrazol-4-yl]propoxy}-3-methoxyphenyl)acetic acid] was tested. Which change in vivo at 0.005 % in diet did it give?
A: 12%
